For experiment [1], the system named is MVECs. Nature of the experiment: VEGF-Stimulated Endothelial Cell Proliferation Assay. The following applies: 72 h, 3 days, Alamar Blue, read-out: EC proliferation (assay 5). Type of experiment: cell-based. The method, then: Assay 5: VEGF-Stimulated Endothelial Cell Proliferation Assay
MVECs are plated to collagen coated 48 well plates at a density of 30 000 cells per well in Earles's Medium M199 (complete with serum). After 4 h the medium is exchanged for medium containing 2% human serum without growth factors (200 μl) and cells are maintained overnight at low serum conditions. The other day the medium is exchanged for the same low serum medium containing in addition test compounds or vehicle in the appropriate concentrations using appropriate controls is exchanged. Five minutes later low serum medium containing 40 ng/ml VEGF is added (200 μl). Cells are cultured for 3 days before mixing with Alamar Blue® (dilution factor of 1: 20) and incubating it for 2 h at 37° C. Measurement of fluorescence intensity is done with the following filters: 528/25 Excitation, 590/35 Emission for the determination of the IC50 concentrations.
Culture Medium Composition
Earle's Medium 199 with stable Glutamine (PAA)+5 ml PenStrep (100×; 10000 Units/10 mg/ml) (PAA)+5 ml Non Essential Amino Acids (100×; without L-Glutamine) (PAA)+5 ml Sodium Pyruvat (100 mM) (PAA)+50 ml FCS (PAA)+50 ml HS+1 ml ECGS in Dulbecco's PBS without Ca2++Mg2+(5 mg/ml) (Sigma)+1 ml Heparin (2500 Units/ml)+2.5 ml Biotect-Protection medium (Biochrom AG)=complete Earle's M 199 medium
Earle's Medium 199 (PAA) with stable Glutamine+5 ml PenStrep (100×; 10000 Units/10 mg/ml) (PAA)+5 ml Non Essential Amino Acids (100×; without L-Glutamine) (PAA)+5 ml Sodium Pyruvat (100 mM) (PAA), 2% HS+2.5 ml Biotect- Protection medium (Biochrom AG)
A general note: Alamar Blue is a resazurin reagent that responds to reducing activity.

The target of experiment [2] is T1, human Aurora-C (Homo sapiens, UniProt Q9UQB9).
T1 construct: GST; made in house; host or cells: transiently transfected HEK293 cells (the print adds '(Sf9)', which contradicts this)
T1 sequence (Q9UQB9 1-309): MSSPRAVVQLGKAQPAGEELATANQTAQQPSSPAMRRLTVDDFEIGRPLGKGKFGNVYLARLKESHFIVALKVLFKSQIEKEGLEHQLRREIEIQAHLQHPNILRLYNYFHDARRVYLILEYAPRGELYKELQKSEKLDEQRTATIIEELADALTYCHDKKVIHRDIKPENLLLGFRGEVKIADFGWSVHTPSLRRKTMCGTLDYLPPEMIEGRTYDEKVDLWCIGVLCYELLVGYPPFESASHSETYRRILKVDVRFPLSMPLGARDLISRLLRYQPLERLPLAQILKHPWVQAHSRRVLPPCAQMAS
Description: Aurora-C Kinase Assay. In kind it is biochemical. The note with it: Aurora-C HTRF, 10 μM ATP; read-out: Aurora C activity (assay 7). An excerpt:
Assay 7: Aurora-C Kinase Assay
Aurora-C inhibitory activity of compounds of the present invention was quantified employing the Aurora-C HTRF assay as described in the following paragraphs.
Recombinant fusion protein of GST and human Aurora-C was expressed in transiently transfected HEK293 cells […] and purified by Glutathion-Sepharose affinity chromatography. As substrate for the kinase reaction biotinylated peptide biotin-Ttds-FMRLRRLSTKYRT (C-terminus in amid form) was used which can be purchased e.g. form the company JERINI peptide technologies (Berlin, Germany). Aurora-C was incubated for 60 min at 22° C. in the presence of different concentrations of test compounds in 5 μl assay buffer [25 mM Hepes/NaOH pH 7.4, 0.5 mM MnCl2, 2.0 mM dithiothreitol, 0.1 mM sodium ortho-vanadate, 10 μM adenosine-tri-phosphate (ATP), […] substrate, 0.01% (v/v) TritonX-100 (Sigma), 0.05% (w/v) bovine serum albumin, 1% (v/v) dimethylsulfoxide]. The concentration of Aurora-C was adjusted depending of the activity of the enzyme lot and was chosen appropriate to have the assay in the linear range, typical concentrations were in the range of 0.3 nM. The reaction was stopped by the addition of 5 μl of a solution of HTRF detection reagents (0.2 μM streptavidine-XLent and 1.4 nM Anti-Phospho-(Ser/Thr) Akt substrate-Cryptate (C is biointernational, France, product no. 61PO2KAE), a labeled Phospho-(Ser/Thr) Akt substrate antibody [product #9611B, Cell Signaling Technology, Danvers, Mass., USA] labeled with Europium Cryptate, in an aqueous EDTA-solution (40 mM EDTA, 400 mM KF, 0.05% (w/v) bovine serum albumin in 25 mM HEPES/NaOH pH 7.0).
The resulting mixture was incubated 1 h at 22° C. to allow the binding of the biotinylated phosphorylated peptide to the streptavidine-XLent and the Anti-Phospho-(Ser/Thr) Akt substrate-Cryptate. Subsequently the amount of phosphorylated substrate was evaluated by measurement of the resonance energy transfer from the Prot-A-EuK to the streptavidine-XLent. Therefore, the fluorescence emissions at 620 nm and 665 nm after excitation at 350 nm was measured in a HTRF reader, e.g. a Rubystar (BMG Labtechnologies, Offenburg, Germany) or a Viewlux (Perkin-Elmer). The ratio of the emissions at 665 nm and at […] was taken as the measure for the amount of phosphorylated substrate. The data were normalised (enzyme reaction without inhibitor=0% inhibition, all other assay components but no enzyme=100% inhibition) and IC50 values were calculated by a 4 parameter fit using an inhouse software.

As to `COc1ccc(C#Cc2cnc(Nc3ccc(S(C)(=N)=O)cc3)nc2N[C@H](C)CO)cc1` (mixture of isomers) [Example 1.1, (RS)—S-(4-[4-((R)-2-Hydroxy-1-methyl-ethylamino)-5-(4-methoxy-phenylethynyl)-pyrimidin-2-ylamino]-phenyl)-S-methylsulfoximide], the results for the IC50 in experiment [1] and in experiment [2] were less than 0.5 µM and greater than 10 µM, respectively.

Turning to `C[C@H](CO)Nc1nc(Nc2ccc(S(C)(=N)=O)cc2)ncc1C#Cc1ccccc1` (mixture of isomers) [Example 1.2, (RS)-S-(4-[4-((R)-2-Hydroxy-1-methyl-ethylamino)-5-(phenylethynyl)-pyrimidin-2-ylamino]-phenyl)-S-methylsulfoximide], the values for the IC50 in experiment [1] and in experiment [2] were less than 0.5 µM and greater than 10 µM, respectively.

For the compound `CCc1ccc(C#Cc2cnc(Nc3ccc(S(C)(=N)=O)cc3)nc2N[C@H](C)CO)cc1` (mixture of isomers) [Example 1.8, (RS)-S-(4-[5-(4-Ethyl-phenylethynyl)-4-((R)-2-hydroxy-1-methyl-ethylamino)-pyrimidin-2-ylamino]-phenyl)-S-methylsulfoximide], in experiment [2], the IC50 was greater than 10 µM.

For `C[C@H](CO)Nc1nc(Nc2ccc(S(C)(=N)=O)cc2)ncc1C#Cc1ccc(F)cc1` (mixture of isomers) [Example 1.9, (RS)-S-(4-[5-(4-Fluoro-phenyl-ethynyl)-4-((R)-2-hydroxy-1-methyl-ethylamino)-pyrimidin-2-ylamino]-phenyl)-S-methylsulfoximide], the IC50 is less than 0.5 µM in experiment [1] and greater than 10 µM in experiment [2].

As to `Cc1cc(C#Cc2cnc(Nc3ccc(S(C)(=N)=O)cc3)nc2N[C@H](C)CO)ccc1F` (mixture of isomers) [Example 1.13, (RS)-S-(4-[5-(4-Fluoro-3-methyl-phenyl-ethynyl)-4-((R)-2-hydroxy-1-methyl-ethylamino)-pyrimidin-2-ylamino]-phenyl)-S-methylsulfoximide], the values for the IC50 in experiment [1] and in experiment [2] were less than 0.5 µM and greater than 10 µM, respectively.

Consider `CC(C)NC(=O)N=S(C)(=O)c1cccc(Nc2ncc(C#Cc3cccc(O)c3)c(N[C@H](C)CO)n2)c1` (mixture of isomers) [Example 1.15, (RS)-S-(3-[4-((R)-2-Hydroxy-1-methyl-ethylamino)-5-(3-hydroxy-phenylethynyl)-pyrimidin-2-ylamino]-phenyl)-N-(isopropylcarbamoyl)-S-methylsulfoximide], for which, in experiment [2], the IC50 is greater than 10 µM.

`COc1ccc(C#Cc2cnc(Nc3cccc(S(C)(=N)=O)c3)nc2N[C@H](C)CO)cc1` (mixture of isomers) [Example 1.17, (RS)-S-(3-[4-((R)-2-Hydroxy-1-methyl-ethylamino)-5-(4-methoxy-phenylethynyl)-pyrimidin-2-ylamino]-phenyl)-S-methylsulfoximide]: the IC50 in experiment [2] was greater than 10 µM.

For `C[C@H](CO)Nc1nc(Nc2cccc(S(C)(=N)=O)c2)ncc1C#Cc1cccc(O)c1` (mixture of isomers) [Example 1.18, (RS)-S-(3-[4-((R)-2-Hydroxy-1-methyl-ethylamino)-5-(3-hydroxy-phenylethynyl)-pyrimidin-2-ylamino]-phenyl)-S-methylsulfoximide], the IC50 in experiment [1] was less than 0.5 µM; in experiment [2] it was greater than 10 µM.

Turning to `Cc1ccccc1C#Cc1cnc(Nc2cccc(S(C)(=N)=O)c2)nc1N[C@H](C)CO` (mixture of isomers) [Example 1.19, (RS)-S-(3-[4-((R)-2-Hydroxy-1-methyl-ethylamino)-5-(2-methyl-phenylethynyl)-pyrimidin-2-ylamino]-phenyl)-S-methylsulfoximide], the IC50 in experiment [1] was less than 0.5 µM; in experiment [2], greater than 10 µM.

For `Cc1cc(C#Cc2cnc(Nc3cccc(S(C)(=N)=O)c3)nc2N[C@H](C)CO)ccc1F` (mixture of isomers) [Example 1.20, (RS)-S-(3-[5-(4-Fluoro-3-methyl-phenyl-ethynyl)-4-((R)-2-hydroxy-1-methyl-ethylamino)-pyrimidin-2-ylamino]-phenyl)-S-methylsulfoximide], the IC50 was less than 0.5 µM in experiment [1] and greater than 10 µM in experiment [2].

As for `Cc1ccccc1C#Cc1cnc(Nc2ccc(S(C)(=N)=O)cc2)nc1N[C@H](C)CO` (mixture of isomers) [Example 1.3], the values for the IC50 in experiment [1] and in experiment [2] were less than 0.5 µM and greater than 10 µM, respectively.

On to `Cc1ccc(C#Cc2cnc(Nc3ccc(S(C)(=N)=O)cc3)nc2N[C@H](C)CO)cc1` (mixture of isomers) [Example 1.5], for which the IC50 was less than 0.5 µM in experiment [1] and greater than 10 µM in experiment [2].

As to `CCNc1nc(Nc2ccc(S(C)(=N)=O)cc2)ncc1C#Cc1ccc(F)c(C)c1` (racemic) [Example 1.24, (RS)-S-(4-[4-ethylamino-5-(4-fluoro-3-methyl-phenyl-ethynyl)-pyrimidin-2-ylamino]-phenyl)-S-methylsulfoximide], the IC50 in experiment [2] lay within 1 to 10 µM.

For `CCNc1nc(Nc2ccc(S(C)(=N)=O)cc2)ncc1C#Cc1ccc(OC)cc1` (racemic) [Example 1.26, (RS)-S-(4-[4-ethylamino-5-(4-methoxy-phenyl-ethynyl)-pyrimidin-2-ylamino]-phenyl)-S-methylsulfoximide], the IC50 in experiment [2] is 1 to 10 µM.

In the case of `CCOC(=O)N=S(C)(=O)c1ccc(Nc2ncc(C#Cc3cccc(O)c3)c(N[C@H](C)CO)n2)cc1` (mixture of isomers) [Example 2.7], the IC50 is less than 0.5 µM in experiment [1] and 1 to 10 µM in experiment [2].

For the compound `CS(=N)(=O)c1cccc(Nc2ncc(C#Cc3cccc(O)c3)cn2)c1` (racemic) [Example 4.2, (RS)—S-(3-[5-(3-hydroxy-phenylethynyl)-pyrimidin-2-ylamino]-phenyl)-S-methylsulfoximide], the IC50 in experiment [2] was greater than 10 µM.
